This is an account of results in patent US7923231B2, “Production of glucuronic acid using myo-inositol oxygenase from cryptococcus neoformans” (Cargill, Incorporated, priority 2004, dated 2011).

The conditions of series [1]: cited from earlier work.
Series [2] concerns myo-inositol oxygenase (MIO). Description: Small-scale biocatalytic conversion: buffer concentration and ionic strength. It counts as biochemical, Cryptococcus neoformans. Particulars: for increase in initial reaction rate and final concentration of D-glucuronic acid produced: salts concentrations higher than 0.25 M. The protocol:
A small-scale protocol was used to develop the biocatalytic production of glucuronic acid from myo-inositol. Cells containing myo-inositol oxygenase were grown as described before, harvested by centrifugation and washed in 50 mM MOPS buffer at pH 7.0. The cell paste was kept frozen until use. To prepare the enzyme for the reaction, the cells were resuspended in 2 volumes of the same buffer at pH 6.5 and broken using either a French press or a MICROFLUIDICS® homogenizer (MICROFLUIDIZER® cell disruptor M-110L, available from Microfluidics, MA). Breakage was accomplished by 2 to 3 passes at 20,000 psi, and was followed visually using a microscope. The cell extract was centrifuged for 20 minutes at 15,000 rpm to remove the cell debris. Total soluble protein was measured in the clear supernatant, as described in Example 1. The cell extract was diluted to a protein concentration of 75 mg/ml and the enzyme was incubated for 1 hr on ice in the presence of ascorbic acid and ferrous ammonium sulfate at concentrations of 5 and 2 mM, respectively.
The enzyme reaction was carried out in 0.7 L reactors with temperature, pH, agitation and dissolved oxygen control. A solution of 50 g/L myo-inositol in 50 mM MOPS at pH 6.5 (200 mL) was used in the standard protocol. Temperature was controlled at 15° C. Pure air, air enriched with oxygen or pure oxygen were used to supply enough oxygen for the reaction to proceed. The air was supplied either in the headspace of the reactor or was sparged into the liquid. The formation of glucuronic acid results in a decrease in the pH of the broth. To keep the pH at the desired value, pH 6.5, the acid was neutralized with 4 N NaOH. The enzyme solution was added to reach an initial concentration of 2 g soluble protein/L. The reaction proceeded very fast immediately after the enzyme addition and the rate decayed over time. Different experiments varied the number and/or amount of enzyme additions. The progress of the reaction was followed by HPLC analysis.
Effect of buffer concentration and ionic strength. The effect of the buffer concentration was tested with the described protocol of Example 6, and included testing without any buffer, using 5 mM MOPS, and using 50 mM MOPS. No difference in the performance of the reaction was observed, either in reaction rate or in extent of reaction, as long as good pH control was provided.
Additionally, further studies on increasing the ionic strength of the broth by adding salts, using either NaCl or sodium glucuronate at 0.25 M and 0.5 M, or mixes of both, indicated better enzyme performance at higher ionic strength.

The subject of series [3] is myo-inositol oxygenase (MIO). The series is described as follows: Conversion rate additives in the myo-inositol conversion mixture. The format is biochemical, Cryptococcus neoformans. Particulars: additive in conversion mixture. An excerpt: Although the conversion rate increased, the final conversion percentages were similar to conversion mixtures without those same additives.

Series [4] can be described thus: Freeze-thaw and frozen storage stability of MIO activity. Particulars: continuous storage at −80° C. for several months. An excerpt: A lysed cell mixture may be added either purified or unpurified into a mixture for MIO activation. If desired, samples containing MIO may be stored prior to use. Samples containing MIO may be stored at low temperatures for short periods of time or may be frozen for longer periods of storage without significant MIO degradation. […] Additional freeze-thaw cycles, however, did reduce MIO activity.

Like-named read-outs stand apart in the source and are kept apart here.

`N[C@@H](CS)C(=O)O` [Cysteine]: in series [1] (pH 7), the reduction potential is on record as −230 mV.

For `O=C1O[C@H]([C@@H](O)CO)C(O)=C1O` [L-ascorbic acid], the reduction potential entry in series [1] (25° C.) is “+54 mV”; in series [1] (30° C.) it was “+51.2 mV”. As for `O=S(=O)(O)CCCN1CCOCC1` [MOPS, 3-[N-morpholino]propanesulfonic acid], the “effect of buffer concentration on reaction rate and extent of reaction” value in series [2] (no buffer, 5 mM and 50 mM MOPS, with good pH control) is “No difference”.

For the molecule `[Cl-].[Na+]` [NaCl], the “increase in initial reaction rate and final concentration of D-glucuronic acid produced” value in series [2] is listed as roughly 50%. On to `O=C[C@H](O)[C@@H](O)[C@H](O)[C@H](O)C(=O)[O-].[Na+]` [sodium glucuronate, reference compound], for which the “inhibition of the reaction” value in series [2] (high concentrations) is reported as “Some inhibition”. Further, the “increase in initial reaction rate and final concentration of D-glucuronic acid produced” value in series [2] was roughly 50%. Turning to “Bovine serum albumin: protein tested as conversion rate additive”, in series [3], the “effect on MIO specific activity and conversion rate” value is recorded as “minimal effect”. In the case of Superoxide dismutase, the “effect on MIO specific activity and conversion rate” value in series [3] is recorded as “slightly increase”. For the molecule catalase, in series [3] (after 6.5 hours), the improvement in conversion was found to be 18%.

B1: MIO: Fe(II) containing enzyme that converts myo-inositol to D-glucuronic acid using oxygen (protein, UniProt Q9UGB7 1-285, looked up)
Inositol oxygenase: MKVTVGPDPSLVYRPDVDPEVAKDKASFRNYTSGPLLDRVFTTYKLMHTHQTVDFVRSKHAQFGGFSYKKMTVMEAVDLLDGLVDESDPDVDFPNSFHAFQTAEGIRKAHPDKDWFHLVGLLHDLGKVLALFGEPQWAVVGDTFPVGCRPQASVVFCDSTFQDNPDLQDPRYSTELGMYQPHCGLDRVLMSWGHDEYMYQVMKFNKFSLPPEAFYMIRFHSFYPWHTGRDYQQLCSQQDLAMLPWVREFNKFDLYTKCPDLPDVDKLRPYYQGLIDKYCPGILSW
With B1, the “MIO activity on long-term storage” value in series [4] was “remained stable”.
